Source: patent US9309263B2, “Fused multi-cyclic sulfone compounds as inhibitors of beta-secretase and methods of use thereof” (AMGEN INC., priority 2013, dated 2016)
Like-named read-outs stand apart in the source and are kept apart here.

Columns and labels:
[1] = target: Beta Secretase enzyme (BACE) (Homo sapiens, UniProt P56817); test: In vitro enzymatic BACE FRET assay; type: biochemical; settings: average IC50, in vitro enzymatic BACE FRET assay; read-out: BACE1 FRET assay IC50
Outline: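 Enzyme (0.2 nM) pre-incubated 1 h with serially diluted inhibitors in 0.05 M acetate pH 4.2, 10% DMSO, 100 uM genapol. Reaction started with 50 nM fluorophore/quencher peptide FRET substrate, run 1 h, stopped with Tris to neutral pH. Fluorescence read at excitation 488 nm, […].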

Cathepsin D (Cat D) = Cathepsin D (Cat D) (Homo sapiens, UniProt P07339); test: In vitro enzymatic Cathepsin D (Cat D) FRET assay; type: biochemical
Outline: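 Recombinant CHO-expressed enzyme (9 nM) pre-incubated 1 h with serially diluted inhibitor in 0.05 M citrate pH 3.5, 10% DMSO final, 5 mM CHAPS. Reaction started with 20 nM FRET peptide substrate, run 1 h, stopped with Tris to neutral pH; fluorescence read at ex 500/em 580 nm.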

[2] = tested on: Aβ 40 in conditioned medium of cells stably expressing Amyloid Precursor Protein (APP); test: In vitro BACE cell-based assay (Aβ 40 sandwich ELISA); settings: Homo sapiens, HEK293; average IC50, HEK cell assay, Aβ 40 readout
Outline: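 APP-expressing cells, 24 h pre-culture in DMEM/10% FBS, treated 24 h with 10-point compound dilutions from 100 or 10 μM top, 0.1% DMSO final. Secreted Aβ40 quantified by sandwich ELISA (pAb40 capture, biotinylated 6E10 detection, europium TRF); IC50 from percent inhibition versus concentration.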

[3] = Cathepsin D FRET assay, read-out: CatD IC50

Sequence of Cathepsin D (Cat D) (P07339 65-412, species assumed): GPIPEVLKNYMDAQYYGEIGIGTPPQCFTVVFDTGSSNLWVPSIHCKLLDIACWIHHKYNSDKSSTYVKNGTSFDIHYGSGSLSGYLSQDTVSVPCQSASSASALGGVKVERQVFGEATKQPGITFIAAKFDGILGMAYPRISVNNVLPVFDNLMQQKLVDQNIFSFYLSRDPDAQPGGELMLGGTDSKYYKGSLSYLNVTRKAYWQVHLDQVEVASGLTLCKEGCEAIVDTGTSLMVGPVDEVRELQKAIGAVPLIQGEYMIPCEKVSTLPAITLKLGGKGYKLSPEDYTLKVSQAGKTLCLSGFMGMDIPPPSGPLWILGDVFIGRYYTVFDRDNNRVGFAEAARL
Sequence of Beta Secretase enzyme (BACE) (P56817 46-501): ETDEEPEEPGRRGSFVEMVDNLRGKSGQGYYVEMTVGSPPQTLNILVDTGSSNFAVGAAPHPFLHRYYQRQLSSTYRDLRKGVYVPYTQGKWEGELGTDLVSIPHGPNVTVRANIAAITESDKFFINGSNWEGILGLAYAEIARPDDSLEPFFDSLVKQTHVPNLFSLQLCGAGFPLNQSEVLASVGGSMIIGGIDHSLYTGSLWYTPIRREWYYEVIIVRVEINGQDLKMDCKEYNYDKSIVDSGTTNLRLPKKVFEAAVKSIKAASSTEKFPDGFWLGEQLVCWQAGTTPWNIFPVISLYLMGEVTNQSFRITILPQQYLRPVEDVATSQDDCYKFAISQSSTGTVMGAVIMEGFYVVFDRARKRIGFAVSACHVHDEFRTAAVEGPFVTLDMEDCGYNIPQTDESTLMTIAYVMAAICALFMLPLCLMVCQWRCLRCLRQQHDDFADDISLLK

IC50 [1] | IC50 (Cathepsin D (Cat D); [3]) | IC50 [2] | IC50 (Cathepsin D (Cat D); text summary referring to data in Table 2) | Compound
0.008 µM | > 400 µM | 0.002 µM | – | Cc1cc(C#N)cnc1C(=O)Nc1ccc2c(c1)[C@@]1(C)N=C(N)C(C)(C)S(=O)(=O)[C@@H]1CC(C)(C)O2 [Example 99, N-((4aR,11bR)-2-amino-3,3,6,6,11b-pentamethyl-4,4-dioxido-4a,5,6,11b-tetrahydro-3H-[1]benzoxepino[4,5-b][1,4]thiazin-10-yl)-5-cyano-3-methyl-2-pyridinecarboxamide]
0.025 µM | 1340 µM | 0.012 µM | > 1200 µM | COc1cnc(C(=O)Nc2ccc3c(c2)[C@@]2(C)N=C(N)C(C)(C)S(=O)(=O)[C@@H]2CC(C)(C)O3)cn1 [Example 100, N-((4aR,11bR)-2-amino-3,3,6,6,11b-pentamethyl-4,4-dioxido-4a,5,6,11b-tetrahydro-3H-[1]benzoxepino[4,5-b][1,4]thiazin-10-yl)-5-methoxy-2-pyrazinecarboxamide]
0.029 µM | 835 µM | 0.019 µM | – | COc1cnc(C(=O)Nc2ccc3c(c2)[C@@]2(C)N=C(N)C(C)(C)S(=O)(=O)[C@@H]2CC(C)(C)O3)c(C)n1 [Example 101, N-((4aR,11bR)-2-amino-3,3,6,6,11b-pentamethyl-4,4-dioxido-4a,5,6,11b-tetrahydro-3H-[1]benzoxepino[4,5-b][1,4]thiazin-10-yl)-5-methoxy-3-methyl-2-pyrazinecarboxamide]
0.001 µM | 284 µM | 0.002 µM | – | CC#CCOc1cnc(C(=O)Nc2ccc3c(c2)[C@@]2(C)N=C(N)C(C)(C)S(=O)(=O)[C@H]2CC(C)(C)O3)cn1 [Example 102, N-((4aS,11bR)-2-amino-3,3,6,6,11b-pentamethyl-4,4-dioxido-4a,5,6,11b-tetrahydro-3H-[1]benzoxepino[4,5-b][1,4]thiazin-10-yl)-5-(2-butyn-1-yloxy)-2-pyrazinecarboxamide]
0.018 µM | 143 µM | 0.023 µM | – | Cc1cc(C(F)(F)F)cnc1C(=O)Nc1ccc2c(c1)[C@@]1(C)N=C(N)C(C)(C)S(=O)(=O)[C@H]1CC(C)(C)O2 [Example 103, N-((4aS,11bR)-2-amino-3,3,6,6,11b-pentamethyl-4,4-dioxido-4a,5,6,11b-tetrahydro-3H-[1]benzoxepino[4,5-b][1,4]thiazin-10-yl)-3-methyl-5-(trifluoromethyl)-2-pyridinecarboxamide]
0.004 µM | 1480 µM | 0.013 µM | – | Cc1cc(C(F)(F)F)cnc1C(=O)Nc1ccc2c(c1)[C@@]1(CF)N=C(N)C(C)(C)S(=O)(=O)[C@H]1C[C@H](C)O2 [Example 105, N-((4aS,6S,11bS)-2-amino-11b-(fluoromethyl)-3,3,6-trimethyl-4,4-dioxido-4a,5,6,11b-tetrahydro-3H-[1]benzoxepino[4,5-b][1,4]thiazin-10-yl)-3-methyl-5-(trifluoromethyl)-2-pyridinecarboxamide]
0.095 µM | > 400 µM | 0.11 µM | – | COc1cnc(C(=O)Nc2ccc3c(c2)[C@@]2(CF)N=C(N)C(C)(C)S(=O)(=O)[C@@H]2C[C@H](C)O3)cn1 [Example 107, N-((4aR,6S,11bS)-2-amino-11b-(fluoromethyl)-3,3,6-trimethyl-4,4-dioxido-4a,5,6,11b-tetrahydro-3H-[1]benzoxepino[4,5-b][1,4]thiazin-10-yl)-5-methoxy-2-pyrazinecarboxamide]
0.013 µM | 388 µM | 0.018 µM | – | COc1cnc(C(=O)Nc2ccc3c(c2)[C@@]2(CF)N=C(N)C(C)(C)S(=O)(=O)[C@H]2C[C@H](C)O3)cn1 [Example 108, N-((4aS,6S,11bS)-2-amino-11b-(fluoromethyl)-3,3,6-trimethyl-4,4-dioxido-4a,5,6,11b-tetrahydro-3H-[1]benzoxepino[4,5-b][1,4]thiazin-10-yl)-5-methoxy-2-pyrazinecarboxamide]
0.003 µM | > 400 µM | 0.008 µM | – | C[C@H]1C[C@H]2[C@](CF)(N=C(N)C(C)(C)S2(=O)=O)c2cc(Nc3nccc4cc(C#N)cnc34)ccc2O1 [Example 109, 8-(((4aS,6S,11bS)-2-amino-11b-(fluoromethyl)-3,3,6-trimethyl-4,4-dioxido-4a,5,6,11b-tetrahydro-3H-[1]benzoxepino[4,5-b][1,4]thiazin-10-yl)amino)-1,7-naphthyridine-3-carbonitrile]
0.013 µM | > 400 µM | 0.021 µM | – | C[C@H]1C[C@@H]2[C@](CF)(N=C(N)C(C)(C)S2(=O)=O)c2cc(Nc3nccc4cc(C#N)cnc34)ccc2O1 [Example 110, 8-(((4aR,6S,11bS)-2-amino-11b-(fluoromethyl)-3,3,6-trimethyl-4,4-dioxido-4a,5,6,11b-tetrahydro-3H-[1]benzoxepino[4,5-b][1,4]thiazin-10-yl)amino)-1,7-naphthyridine-3-carbonitrile]
0.005 µM | 331 µM | 0.019 µM | – | Cc1cc(C#N)cnc1C(=O)Nc1ccc2c(c1)[C@@]1(C)N=C(N)C(C)(C)S(=O)(=O)[C@]1(F)CCO2 [Example 111, N-((4aR,11bR)-2-amino-4a-fluoro-3,3,11b-trimethyl-4,4-dioxido-4a,5,6,11b-tetrahydro-3H-[1]benzoxepino[4,5-b][1,4]thiazin-10-yl)-5-cyano-3-methyl-2-pyridinecarboxamide]
0.003 µM | 316 µM | 0.002 µM | – | CC1(C)C[C@@H]2[C@](C)(N=C(N)C(C)(C)S2(=O)=O)c2cc(Nc3nccc4cc(C#N)cnc34)ccc2O1 [Example 112, 8-(((4aR,11bR)-2-amino-3,3,6,6,11b-pentamethyl-4,4-dioxido-4a,5,6,11b-tetrahydro-3H-[1]benzoxepino[4,5-b][1,4]thiazin-10-yl)amino)-1,7-naphthyridine-3-carbonitrile]
0.006 µM | 1200 µM | 0.002 µM | – | Cc1cc(C(F)(F)F)cnc1C(=O)Nc1ccc2c(c1)[C@@]1(C)N=C(N)C(C)(C)S(=O)(=O)[C@@H]1CC(C)(C)O2 [Example 113, N-((4aR,11bR)-2-amino-3,3,6,6,11b-pentamethyl-4,4-dioxido-4a,5,6,11b-tetrahydro-3H-[1]benzoxepino[4,5-b][1,4]thiazin-10-yl)-3-methyl-5-(trifluoromethyl)-2-pyridinecarboxamide]
0.001 µM | 292 µM | 0.012 µM | – | Cc1cc(Cl)cnc1C(=O)Nc1ccc2c(c1)[C@@]1(C)N=C(N)C(C)(C)S(=O)(=O)[C@@H]1CCS2 [Example 114, N-((4aR,11bR)-2-amino-3,3,11b-trimethyl-4,4-dioxido-4a,5,6,11b-tetrahydro-3H-[1]benzothiepino[4,5-b][1,4]thiazin-10-yl)-5-chloro-3-methyl-2-pyridinecarboxamide]
0.006 µM | 276 µM | 0.012 µM | – | Cc1cc(Cl)cnc1C(=O)Nc1ccc2c(c1)[C@@]1(C)N=C(N)C(C)(C)S(=O)(=O)[C@H]1CCS2 [Example 115, N-((4aS,11bR)-2-amino-3,3,11b-trimethyl-4,4-dioxido-4a,5,6,11b-tetrahydro-3H-[1]benzothiepino[4,5-b][1,4]thiazin-10-yl)-5-chloro-3-methyl-2-pyridinecarboxamide]
0.011 µM | > 400 µM | 0.014 µM | – | Cc1cc(C(F)(F)F)cnc1C(=O)Nc1ccc2c(c1)[C@@]1(CF)N=C(N)C(C)(C)S(=O)(=O)[C@H]1CCO2 [Example 116, N-((4aS,11bS)-2-amino-11b-(fluoromethyl)-3,3-dimethyl-4,4-dioxido-4a,5,6,11b-tetrahydro-3H-[1]benzoxepino[4,5-b][1,4]thiazin-10-yl)-3-methyl-5-(trifluoromethyl)-2-pyridinecarboxamide]
0.014 µM | 168 µM | 0.003 µM | – | COc1cnc(C(=O)Nc2ccc3c(c2)[C@@]2(C)N=C(N)C(C)(C)S(=O)(=O)[C@@H]2CCS3)cn1 [Example 117, N-((4aR,11bR)-2-amino-3,3,11b-trimethyl-4,4-dioxido-4a,5,6,11b-tetrahydro-3H-[1]benzothiepino[4,5-b][1,4]thiazin-10-yl)-5-methoxy-2-pyrazinecarboxamide]
0.002 µM | 207 µM | 0.002 µM | – | Cc1cc(OC(F)F)cnc1C(=O)Nc1ccc2c(c1)[C@@]1(C)N=C(N)C(C)(C)S(=O)(=O)[C@@H]1CCS2 [Example 118]
0.024 µM | 3360 µM | 0.019 µM | – | Cc1cc(C(F)(F)F)cnc1C(=O)Nc1ccc2c(c1)[C@@]1(CF)N=C(N)C(C)(C)S(=O)(=O)[C@@H]1CCO2 [Example 119, N-((4aR,11bS)-2-amino-11b-(fluoromethyl)-3,3-dimethyl-4,4-dioxido-4a,5,6,11b-tetrahydro-3H-[1]benzoxepino[4,5-b][1,4]thiazin-10-yl)-3-methyl-5-(trifluoromethyl)-2-pyridinecarboxamide]
0.082 µM | 752 µM | 0.148 µM | – | CC1(C)C(N)=N[C@]2(CF)c3cc(NC(=O)c4cnc(C(F)(F)F)cn4)ccc3OCC[C@@H]2S1(=O)=O [Example 120, N-((4aS,11bS)-2-amino-11b-(fluoromethyl)-3,3-dimethyl-4,4-dioxido-4a,5,6,11b-tetrahydro-3H-[1]benzoxepino[4,5-b][1,4]thiazin-10-yl)-5-(trifluoromethyl)-2-pyrazinecarboxamide]
